Results published in patent publication US10774064B2 (Cadent Therapeutics, Inc., priority 2016, dated 2020).

What follows are molecules tested against T1, small-conductance Ca2+-activated K+ channels (SK channels, subtype 2) (Homo sapiens, UniProt Q9H2S1) (assay: whole-cell patch-clamp of ionic current through SK2 channels in HEK293 cells (SC100)). Conditions: concentration that increases the basal current by 100%; HEK293 cells expressing SK2 channels.
T1 construct: expressed in transfected cells; host or cells: HEK293
Format: cell-based
Description: The biological activity was determined as follows. The ionic current through small-conductance Ca^2+-activated K^+ channels (SK channels, subtype 2) was measured using the whole-cell configuration of the patch-clamp technique in a patch-clamp set-up using HEK293 tissue culture cells expressing SK2 channels as described in Hougaard et al., British Journal of Pharmacology 151, 655-665, May 8, 2007, the entire teachings of which are incorporated herein by reference. In one aspect, a compound is defined to be an SK PAM if the compound increases current in this assay, for example, if the SC100 value of the compound is less than or equal to 10 μM as determined by this assay. The SC100 value is defined to be the concentration of compound that increases the basal current by 100%.

Row | SC100 | SMILES
1 | ++ (++ means 200 nM-1000 nM) | Cc1cc(C)n(-c2nc(NC3CCC(F)(F)CC3)cc(N3CCOC(CO)C3)n2)n1 (racemic) [Compound 110, (4-(6-((4,4-difluorocyclohexyl)amino)-2-(3,5-dimethyl-1H-pyrazol-1-yl)pyrimidin-4-yl)morpholin-2-yl)methanol]
2 | ++ (++ means 200 nM-1000 nM) | Cc1cc(C)n(-c2nc(NC3CCC(F)(F)CC3)cc(N3CCO[C@H](CO)C3)n2)n1 (single isomer, unassigned) [Compound 113, (−)-(4-(6-((4,4-difluorocyclohexyl)amino)-2-(3,5-dimethyl-1H-pyrazol-1-yl)pyrimidin-4-yl)morpholin-2-yl)methanol]
3 | + (+ means >1 uM) | Cc1cc(C)n(-c2nc(NC3CCC(F)(F)CC3)cc(NC3CCN(C)C3=O)n2)n1 (centres unmarked) [Compound 125, 3-((6-((4,4-difluorocyclohexyl)amino)-2-(3,5-dimethyl-1H-pyrazol-1-yl)pyrimidin-4-yl)amino)-1-methylpyrrolidin-2-one]

Same assay, conditions: whole-cell patch-clamp, HEK293 cells expressing SK2 channels; concentration that increases the basal current by 100%

Row | SMILES | SC100 (μM)
4 | Cc1csc(-c2nc(NC3CCC(F)(F)CC3)cc(OCc3nnc(C)o3)n2)n1 [NSSy5651] | ++ (++ means 200 nM-1000 nM)
5 | COCCOc1cc(-n2ccc(C)n2)nc(NC2CCC(F)(F)CC2)n1 [NSSy6675] | + (+ means >1 uM)
6 | Cn1cnc(COc2cc(NC3CCC(F)(F)CC3)nc(-n3ccc(C4CC4)n3)n2)n1 [IN11106-066-P1] | + (+ means >1 uM)
7 | CC(=O)N1CCN(c2cc(-n3ccc(CF)n3)nc(NC3CCC(F)(F)CC3)n2)CC1 [NSSy6917] | ++ (++ means 200 nM-1000 nM)
8 | CC(=O)N1CCC(c2cc(NC3CCC(F)(F)CC3)nc(-n3ccc(C)n3)c2)CC1 [NSSy6910] | +++ (+++ means <200 nM)
9 | Cc1ccn(-c2cc(COc3ncccc3C(C)(C)O)cc(NC3CCC(F)(F)CC3)n2)n1 [IN11039-069-P1] | +++ (+++ means <200 nM)
10 | COC(=O)N1CC(Oc2cc(NC3CCC(F)(F)CC3)[n+]([O-])c(-n3ccc(C)n3)n2)C1 [NSSy6072, 6-((4,4-difluorocyclohexyl)amino)-4-((1-(methoxycarbonyl)azetidin-3-yl)oxy)-2-(3-methyl-1H-pyrazol-1-yl)pyrimidine 1-oxide] | + (+ means >1 uM)
11 | Cc1cc(C)n(-c2ncc(N3CCOCC3)c(NC3CCC(F)(F)CC3)n2)n1 [IN10966-011-P1, N-(4,4-difluorocyclohexyl)-2-(3,5-dimethyl-1H-pyrazol-1-yl)-5-morpholinopyrimidin-4-amine] | + (+ means >1 uM)
12 | Cc1ccn(-c2nc(C(C)O)cc(N(C)C3CCCCC3C)n2)n1 (centres unmarked) [IN10881-059-P1] | + (+ means >1 uM)
13 | Cc1ccn(-c2nc(NC3CCC(F)(F)CC3)cc(OCc3cocn3)n2)n1 [IN11053-024-P1] | + (+ means >1 uM)

Now from value to molecule:

Row | SC100 (μM) | SMILES
14 | +++ (+++ means <200 nM) | COC[C@H]1CN(c2cc(NC3CCC(F)(F)CC3)nc(-c3nc(C)cs3)n2)CCO1 [NSSy5796]
15 | ++ (++ means 200 nM-1000 nM) | CCC(=O)N1CC(Oc2cc(NC3CCC(F)(F)CC3)nc(-c3nc(C)cs3)n2)C1 [NSSy5726]
16 | + (+ means >1 uM) | Cc1csc(-c2nc(NC3CCC(F)(F)CC3)cc(OC(C)C)n2)n1 [IN11055-016-P1]
17 | +++ (+++ means <200 nM) | COC(=O)NCc1cc(NC2CCC(F)(F)CC2)nc(-c2nc(C)cs2)c1 [IN11130-047-P1]
18 | + (+ means >1 uM) | Cc1cc(NC2CCC(F)(F)CC2)nc(-n2ccc(C3(C)CC3)n2)n1 [NSSy7012]
19 | + (+ means >1 uM) | [2H]c1c(NC2CCC(F)(F)CC2)nc(-c2nc(C)cs2)nc1OC1CN(C(=O)OC)C1 [NSSy6045, methyl 3-((6-((4,4-difluorocyclohexyl)amino)-2-(4-methylthiazol-2-yl)pyrimidin-4-yl-5-d)oxy) azetidine-1-carboxylate]
20 | ++ (++ means 200 nM-1000 nM) | COc1c(NC2CCC(F)(F)CC2)nc(-c2nc(C)cs2)nc1OCc1cnco1 [IN11111-021-P1]
